According to patent US20200352184A1, “Prevention of Postharvest Physiological Deterioration using Sulfur-Donating Compounds” (Apeel Technology, Inc., priority 2017, published 2020):

Test: Saturation concentration in water
Format: physicochemical
Conditions: standard temperature and pressure stated for sodium thiosulfate
Method: For example, at standard temperature and pressure, water can become saturated with sodium thiosulfate at a concentration of about 700 mg/mL. Accordingly, in some embodiments, the concentration of a solution (e.g., an aqueous solution) containing sodium thiosulfate can be about 700 mg/mL. […] Accordingly, in some embodiments, the concentration of the sodium thiosulfate is between about 400 and about 700 mg/mL (e.g., between about 500 and about 700 mg/mL). In some embodiments, the concentration of the sodium thiosulfate salt is about 100, about 200, about 300, about 400, about 500, about 600, or about 700 mg/mL. In some embodiments, the concentration can be lower than 700 mg/mL.
In some embodiments, a metabisulfite solution (e.g., sodium metabisulfite) solution in water can become saturated at about 300 mg/mL. Accordingly, in some embodiments solutions of sodium metabisulfite are used at a concentration of about 300 mg/mL, about 200 mg/mL, or about 100 mg/mL.

With `O.O.O.O.O.O=S([O-])([O-])=S.[Na+].[Na+]` [sodium thiosulfate, sodium thiosulfate pentahydrate] the “concentration at which water becomes saturated” value was “about 700 mg/mL”.

With `O=S([O-])S(=O)(=O)[O-].[Na+].[Na+]` [sodium metabisulfite] the “concentration at which water becomes saturated” value was “about 300 mg/mL”.
